Assay results: ChEMBL document CHEMBL1201862, “PubChem BioAssay data set” (2004)
The source made the active and inactive calls.

Columns and labels:
[1] = target: Melanin-concentrating hormone receptor 1 (Homo sapiens, UniProt Q99705); assay: Late-stage fluorescence-based counterscreen for antagonists of the G-protein coupled receptor 7 (GPR7): cell-based dose response assay to identify antagonists of the melanin-concentrating hormone receptor 1 (MCHR1). [Related pubchem assays (depositor defined):AID1861, AID1880, AID1952, AID2148, AID2251, AID2257, AID485339]; type: functional;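 note: stimulated with 30 nM MCH peptide agonist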
Chain of Melanin-concentrating hormone receptor 1 (Q99705 whole entry): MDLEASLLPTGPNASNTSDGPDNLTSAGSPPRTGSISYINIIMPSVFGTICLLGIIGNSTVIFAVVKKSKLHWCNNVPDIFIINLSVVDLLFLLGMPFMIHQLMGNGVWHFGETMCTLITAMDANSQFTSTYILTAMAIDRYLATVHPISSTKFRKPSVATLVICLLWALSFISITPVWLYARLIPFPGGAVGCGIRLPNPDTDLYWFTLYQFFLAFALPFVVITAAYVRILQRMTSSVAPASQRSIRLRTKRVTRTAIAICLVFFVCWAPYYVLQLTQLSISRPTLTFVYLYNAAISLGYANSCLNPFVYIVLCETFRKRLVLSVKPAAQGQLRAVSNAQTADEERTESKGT

Streptococcus = assay: GAS UMAA2166 growth inhibition – luminescence, BacTiterGlo, counter-screen for streptokinase expression inhibitor project, dose response (AID 1915); type: functional, organism-based;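 note: potency for reduction of bacterial viability or growth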
[2] = NIH-3T3 fibroblast cytotoxicity, dose response, cytotoxicity control, cell-based, fluorescence, Alamar Blue, secondary assay (AID 2327); type: functional;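 note: NIH-3T3 mouse fibroblasts cultured with fluconazole at 8 µg/mL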
[3] = THP-1 cell cytotoxicity, dose response, cytotoxicity control for non-replicating M. tuberculosis project (AID 489025); type: functional
cells = type: functional
[4] = Vero E6 cell cytotoxicity, dose response, cytotoxicity control for non-replicating M. tuberculosis project, secondary assay (AID 492998); type: functional, VeroE6; conditions: Vero C1008
[5] = fluconazole-exposed Candida albicans growth modulators – fluorescence, retest, confirmation (AID 2467); type: functional, cell-based
[6] = system: Streptococcus sp. 'group A'; assay: Streptococcus pyogenes SK(-)GAS viability under kanamycin – luminescence, BacTiterGlo, confirmation, counter-screen for streptokinase expression inhibitor project, dose response (AID 1900); type: functional, organism-based
Coagulation factor XII = target: T1, Coagulation factor XII (Homo sapiens, UniProt P00748); type: functional;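 note: activated factor XIIa alpha cleaving a fluorogenic AMC peptide substrate; inhibitor potency from loss of enzyme activity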
T1 sequence (P00748 whole entry): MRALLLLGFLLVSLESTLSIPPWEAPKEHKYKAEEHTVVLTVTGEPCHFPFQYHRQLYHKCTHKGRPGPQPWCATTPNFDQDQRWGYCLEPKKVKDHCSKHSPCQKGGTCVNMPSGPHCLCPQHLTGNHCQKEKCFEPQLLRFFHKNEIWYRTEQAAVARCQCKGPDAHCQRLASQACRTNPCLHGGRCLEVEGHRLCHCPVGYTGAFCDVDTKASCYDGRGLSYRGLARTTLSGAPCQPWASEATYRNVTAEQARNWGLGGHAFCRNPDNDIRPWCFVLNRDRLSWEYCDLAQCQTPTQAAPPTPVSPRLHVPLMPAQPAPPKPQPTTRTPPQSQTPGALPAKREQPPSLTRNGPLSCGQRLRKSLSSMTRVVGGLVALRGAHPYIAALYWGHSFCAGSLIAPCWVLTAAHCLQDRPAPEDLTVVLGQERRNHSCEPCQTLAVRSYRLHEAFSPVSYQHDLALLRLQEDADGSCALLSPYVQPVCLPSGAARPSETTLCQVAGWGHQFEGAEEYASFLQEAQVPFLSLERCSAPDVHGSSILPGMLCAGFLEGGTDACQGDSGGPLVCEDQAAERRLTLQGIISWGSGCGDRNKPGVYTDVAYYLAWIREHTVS

Prothrombin = Prothrombin (Homo sapiens, UniProt P00734); assay: Thrombin 1536 HTS Dose Response Confirmation. [Related pubchem assays: 1046 (Thrombin 1536 HTS; hits were confirmed in this assay)]; type: functional
Protein Tat = target: T2, Protein Tat (Human immunodeficiency virus type 1 group M subtype B (isolate HXB2)(HIV-1), UniProt P04608); type: functional;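 note: tat binding to TAR RNA read out by fluorescence polarization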
T2 sequence (P04608 whole entry): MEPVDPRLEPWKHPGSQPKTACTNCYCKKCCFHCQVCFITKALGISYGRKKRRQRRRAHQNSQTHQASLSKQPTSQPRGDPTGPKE

[7] = target: T3, Voltage-gated N-type calcium channel alpha-1B subunit/Amyloid beta A4 precursor protein-binding family A member 1 (Homo sapiens, UniProt Q00975+Q02410); type: protein assay
T3 sequence (Q00975 whole entry): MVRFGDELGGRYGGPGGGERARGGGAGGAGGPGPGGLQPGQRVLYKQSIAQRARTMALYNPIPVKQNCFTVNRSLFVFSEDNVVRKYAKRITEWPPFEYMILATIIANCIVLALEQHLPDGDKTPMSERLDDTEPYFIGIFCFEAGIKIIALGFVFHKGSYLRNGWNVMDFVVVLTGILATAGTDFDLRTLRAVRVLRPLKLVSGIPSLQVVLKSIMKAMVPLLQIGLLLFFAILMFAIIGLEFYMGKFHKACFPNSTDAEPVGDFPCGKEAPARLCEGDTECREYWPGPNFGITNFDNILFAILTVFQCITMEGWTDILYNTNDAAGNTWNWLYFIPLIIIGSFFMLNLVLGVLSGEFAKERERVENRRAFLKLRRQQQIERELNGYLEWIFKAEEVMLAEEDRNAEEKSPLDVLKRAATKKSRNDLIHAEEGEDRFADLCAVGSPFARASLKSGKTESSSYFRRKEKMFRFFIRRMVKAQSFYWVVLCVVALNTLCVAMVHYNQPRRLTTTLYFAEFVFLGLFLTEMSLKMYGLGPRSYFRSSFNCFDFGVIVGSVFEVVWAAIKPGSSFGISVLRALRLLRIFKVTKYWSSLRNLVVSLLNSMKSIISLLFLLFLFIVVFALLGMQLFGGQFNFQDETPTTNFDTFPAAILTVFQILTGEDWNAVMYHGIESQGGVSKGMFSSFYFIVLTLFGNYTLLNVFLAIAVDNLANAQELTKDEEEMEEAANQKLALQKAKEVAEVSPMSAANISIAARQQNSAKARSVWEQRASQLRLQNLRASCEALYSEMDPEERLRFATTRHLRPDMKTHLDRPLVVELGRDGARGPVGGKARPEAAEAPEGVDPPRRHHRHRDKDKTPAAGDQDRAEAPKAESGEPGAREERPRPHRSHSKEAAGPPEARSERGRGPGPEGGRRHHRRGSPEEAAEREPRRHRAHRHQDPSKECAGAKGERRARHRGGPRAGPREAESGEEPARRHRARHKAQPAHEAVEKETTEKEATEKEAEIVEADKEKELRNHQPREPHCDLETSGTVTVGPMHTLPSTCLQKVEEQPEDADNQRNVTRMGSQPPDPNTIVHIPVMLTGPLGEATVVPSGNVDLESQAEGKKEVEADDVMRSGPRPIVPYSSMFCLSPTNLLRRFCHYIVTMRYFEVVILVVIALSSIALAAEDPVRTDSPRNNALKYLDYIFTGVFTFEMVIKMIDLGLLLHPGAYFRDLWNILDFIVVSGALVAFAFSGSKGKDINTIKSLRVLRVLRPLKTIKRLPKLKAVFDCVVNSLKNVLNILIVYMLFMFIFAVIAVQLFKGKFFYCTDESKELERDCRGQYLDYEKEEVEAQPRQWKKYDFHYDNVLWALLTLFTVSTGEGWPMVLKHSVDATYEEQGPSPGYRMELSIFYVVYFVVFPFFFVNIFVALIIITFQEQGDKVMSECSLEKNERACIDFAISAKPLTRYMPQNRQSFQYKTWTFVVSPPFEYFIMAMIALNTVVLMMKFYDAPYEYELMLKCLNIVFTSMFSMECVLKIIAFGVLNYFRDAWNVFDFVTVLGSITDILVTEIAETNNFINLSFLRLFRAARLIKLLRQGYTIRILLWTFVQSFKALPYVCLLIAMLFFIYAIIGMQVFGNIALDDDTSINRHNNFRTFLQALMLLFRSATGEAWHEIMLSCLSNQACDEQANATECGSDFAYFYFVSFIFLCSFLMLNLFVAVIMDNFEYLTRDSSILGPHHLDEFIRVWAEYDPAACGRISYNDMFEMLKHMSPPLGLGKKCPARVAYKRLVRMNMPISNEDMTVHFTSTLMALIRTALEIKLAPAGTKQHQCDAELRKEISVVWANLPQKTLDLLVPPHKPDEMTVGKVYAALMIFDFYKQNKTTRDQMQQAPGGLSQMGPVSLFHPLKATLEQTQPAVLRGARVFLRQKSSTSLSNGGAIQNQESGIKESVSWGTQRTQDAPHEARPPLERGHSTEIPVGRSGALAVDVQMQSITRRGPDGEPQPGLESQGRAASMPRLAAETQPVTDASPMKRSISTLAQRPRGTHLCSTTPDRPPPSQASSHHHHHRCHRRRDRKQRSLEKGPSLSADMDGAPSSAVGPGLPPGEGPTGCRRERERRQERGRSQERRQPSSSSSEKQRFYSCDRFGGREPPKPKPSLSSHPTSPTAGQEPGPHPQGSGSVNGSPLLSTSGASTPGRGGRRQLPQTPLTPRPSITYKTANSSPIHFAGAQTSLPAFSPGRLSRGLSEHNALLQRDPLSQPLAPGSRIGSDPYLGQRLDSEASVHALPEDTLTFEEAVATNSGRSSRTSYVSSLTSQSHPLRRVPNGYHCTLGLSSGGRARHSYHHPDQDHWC
T3 sequence (Q02410 whole entry): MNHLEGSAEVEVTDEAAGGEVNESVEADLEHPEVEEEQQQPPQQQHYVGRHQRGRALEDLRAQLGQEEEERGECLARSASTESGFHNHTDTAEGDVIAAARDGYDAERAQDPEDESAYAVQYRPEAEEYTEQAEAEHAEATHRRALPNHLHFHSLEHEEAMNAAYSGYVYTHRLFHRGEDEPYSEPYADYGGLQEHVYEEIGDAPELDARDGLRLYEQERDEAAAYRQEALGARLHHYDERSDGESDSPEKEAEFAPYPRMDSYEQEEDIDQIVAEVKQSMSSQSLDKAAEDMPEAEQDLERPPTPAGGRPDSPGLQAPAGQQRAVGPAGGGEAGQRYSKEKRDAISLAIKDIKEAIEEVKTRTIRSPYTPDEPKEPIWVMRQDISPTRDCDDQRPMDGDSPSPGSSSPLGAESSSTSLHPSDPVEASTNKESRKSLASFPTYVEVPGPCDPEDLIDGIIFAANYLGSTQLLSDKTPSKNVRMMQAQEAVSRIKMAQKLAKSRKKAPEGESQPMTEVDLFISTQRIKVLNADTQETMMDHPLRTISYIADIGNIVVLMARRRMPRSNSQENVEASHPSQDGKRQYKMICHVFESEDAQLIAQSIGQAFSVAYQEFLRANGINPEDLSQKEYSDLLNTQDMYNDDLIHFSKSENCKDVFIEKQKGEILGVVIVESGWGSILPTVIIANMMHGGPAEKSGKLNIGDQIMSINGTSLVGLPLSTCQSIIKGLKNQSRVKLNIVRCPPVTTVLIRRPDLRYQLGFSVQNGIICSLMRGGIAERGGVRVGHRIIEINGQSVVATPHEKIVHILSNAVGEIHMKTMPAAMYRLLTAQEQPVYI

[8] = target: DNA dC->dU-editing enzyme APOBEC-3G (Homo sapiens, UniProt Q9HC16); assay: Dose Response confirmation of small molecule APOBEC3G DNA Deaminase Inhibitors via a fluorescence-based single-stranded DNA deaminase assay. [Related pubchem assays (depositor defined):AID493012, AID493028]; type: functional
Chain of DNA dC->dU-editing enzyme APOBEC-3G (Q9HC16 whole entry): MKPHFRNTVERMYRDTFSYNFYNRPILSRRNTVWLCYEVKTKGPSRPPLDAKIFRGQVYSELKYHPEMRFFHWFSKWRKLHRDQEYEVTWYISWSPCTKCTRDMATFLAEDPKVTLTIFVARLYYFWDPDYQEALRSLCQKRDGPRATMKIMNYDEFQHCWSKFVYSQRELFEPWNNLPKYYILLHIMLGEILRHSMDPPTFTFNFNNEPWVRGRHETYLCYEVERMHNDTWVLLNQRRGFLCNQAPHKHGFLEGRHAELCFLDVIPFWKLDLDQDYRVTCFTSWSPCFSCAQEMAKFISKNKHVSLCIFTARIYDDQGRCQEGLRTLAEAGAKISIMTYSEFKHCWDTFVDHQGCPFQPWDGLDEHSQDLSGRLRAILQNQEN

[9] = target: T3, Voltage-gated N-type calcium channel alpha-1B subunit/Amyloid beta A4 precursor protein-binding family A member 1; type: protein assay; remark: listed apart in the source
H4 = assay: Luminescence Cell-Based Dose Response HTS to Identify Activators of 5'UTR Stem-Loop Driven Prion Protein mRNA Translation in H4 Neuroglioblastoma Cells. [Related pubchem assays: 1829 (Project Summary), 1814 (Primary HTS)]; type: functional; conditions: Homo sapiens
[10] = target: DNA dC->dU-editing enzyme APOBEC-3A (Homo sapiens, UniProt P31941); assay: A3A deaminase inhibition for selectivity – biochemical, dose response (AID 504722); type: functional
Chain of DNA dC->dU-editing enzyme APOBEC-3A (P31941 whole entry): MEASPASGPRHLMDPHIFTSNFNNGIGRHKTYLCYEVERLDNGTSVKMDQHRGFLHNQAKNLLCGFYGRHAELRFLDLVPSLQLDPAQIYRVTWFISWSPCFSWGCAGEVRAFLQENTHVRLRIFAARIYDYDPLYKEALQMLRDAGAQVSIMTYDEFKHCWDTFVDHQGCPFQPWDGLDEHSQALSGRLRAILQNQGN

[11] = Luminescence Cell-Based Dose Confirmation HTS to Identify Activators of 5'UTR Stem-Loop Driven Alpha-Synuclein mRNA Translation in H4 Neuroglioblastoma Cells. [Related pubchem assays: 1829 (Project Summary), 1814 (Primary HTS)]; type: functional
[12] = Luminescence Cell-Based Dose Response HTS to Identify Activators of Luciferase Translation or Activity in H4 […] Cells. [Related pubchem assays: 1829 (Project Summary), 1814 (Primary HTS)]; type: functional
Large T antigen = Large T antigen (Simian virus 40, UniProt P03070); type: functional, Betapolyomavirus macacae;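 note: Confirmatory-stage PubChem screen for compounds that inhibit SV40 T antigen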
Chain of Large T antigen (P03070 whole entry): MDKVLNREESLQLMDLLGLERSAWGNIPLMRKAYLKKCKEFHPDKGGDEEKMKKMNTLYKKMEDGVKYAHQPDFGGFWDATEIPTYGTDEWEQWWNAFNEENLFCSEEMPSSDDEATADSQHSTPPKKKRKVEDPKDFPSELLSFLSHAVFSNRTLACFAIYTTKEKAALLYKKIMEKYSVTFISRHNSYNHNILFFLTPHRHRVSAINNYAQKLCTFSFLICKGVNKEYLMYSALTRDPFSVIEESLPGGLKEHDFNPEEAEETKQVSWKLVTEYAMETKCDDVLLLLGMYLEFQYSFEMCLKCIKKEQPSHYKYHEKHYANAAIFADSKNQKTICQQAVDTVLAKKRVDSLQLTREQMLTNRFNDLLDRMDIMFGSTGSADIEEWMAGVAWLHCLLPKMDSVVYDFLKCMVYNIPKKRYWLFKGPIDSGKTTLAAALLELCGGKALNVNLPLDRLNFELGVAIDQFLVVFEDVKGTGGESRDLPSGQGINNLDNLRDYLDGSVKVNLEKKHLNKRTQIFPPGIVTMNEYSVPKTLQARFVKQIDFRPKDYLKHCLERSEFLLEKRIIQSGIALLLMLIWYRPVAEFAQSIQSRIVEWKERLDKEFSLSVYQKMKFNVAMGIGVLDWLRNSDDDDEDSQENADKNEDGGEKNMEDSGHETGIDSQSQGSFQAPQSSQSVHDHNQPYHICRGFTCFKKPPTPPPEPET

[13] = HIV-1 Vif–A3G interaction blockers – biochemical, TR-FRET, GST-Vif 1-94, biotin-A3G peptide, dose response retest, primary screen (AID 1117319); type: functional;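 note: TR-FRET signal of purified GST-Vif binding a biotinylated A3G peptide; inhibitors lower the FRET signal by blocking Vif and A3G binding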
[14] = target: Peroxisome proliferator-activated receptor gamma/Nuclear receptor coactivator 3 (Homo sapiens, UniProt P37231); assay: TR-FRET dose response biochemical High Throughput Screening assay for agonists of the steroid receptor coactivator 3 (SRC-3) recruitment by the peroxisome proliferator-activated receptor gamma (PPAR gamma): non-selective agonists. [Related pubchem assays: 1301 (Confirmation screen.), 1048 (Primary screen.)]; type: functional
[15] = target: Peroxisome proliferator-activated receptor gamma/Nuclear receptor coactivator 1 (Homo sapiens, UniProt P37231); assay: TR-FRET dose response biochemical High Throughput Screening assay for agonists of the steroid receptor coactivator 1 (SRC-1) recruitment by the peroxisome proliferator-activated receptor gamma (PPAR gamma): non-selective agonists. [Related pubchem assays (depositor defined):AID1300, AID1808, AID504735, AID631]; type: protein assay
[16] = target: Peroxisome proliferator-activated receptor gamma/Nuclear receptor coactivator 2 (Homo sapiens, UniProt P37231); assay: TR-FRET dose response biochemical High Throughput Screening assay for agonists of the steroid receptor coactivator 2 (SRC-2) recruitment by the peroxisome proliferator-activated receptor gamma (PPAR gamma): non-selective agonists. [Related pubchem assays: 1297, 1032 ]; type: functional
Troponin, cardiac muscle = Troponin, cardiac muscle (Homo sapiens, UniProt P19429+P45379+P63316); assay: Fluorescence-based biochemical high throughput dose response assay for activators of the calcium sensitivity of cardiac Regulated Thin Filaments (RTF). [Related pubchem assays (depositor defined):AID493008, AID493018, AID504382, AID504383]; type: protein-complex assay
Beta-galactosidase = Beta-galactosidase (Escherichia coli, UniProt Q8VNN2); assay: Dose response counterscreen for EBI2 assay utilizing the enzyme, b-galactosidase.; type: functional
[17] = Trypanosoma cruzi growth suppression in host cells – NIH3T3 host cells, beta-gal luminescence, confirmation (AID 2044); type: functional, cell-based;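 note: intracellular parasites grown in NIH/3T3 mouse fibroblasts as host cells; luminescent beta-galactosidase reporter signal from transgenic T. cruzi replicating inside host cells; inhibitors lower the luminescence signal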
[18] = NIH3T3 cell viability loss – ATP luminescence, mouse fibroblasts, counter-screen, dose response (AID 2010); type: functional, cell-based;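 note: cells exposed to compound for about 90 hours before reading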
[19] = target: T4, RNA-binding protein pos-1 (Caenorhabditis elegans, UniProt G5EF15); assay: disruptors of C. elegans POS-1 RNA interaction – biochemical, fluorescence polarization, dose response (AID 1964);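 note: purified POS-1 fused to maltose binding protein made in E. coli; potency of compounds blocking POS-1 binding to fluorescent RNA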
T4 sequence (G5EF15 whole entry): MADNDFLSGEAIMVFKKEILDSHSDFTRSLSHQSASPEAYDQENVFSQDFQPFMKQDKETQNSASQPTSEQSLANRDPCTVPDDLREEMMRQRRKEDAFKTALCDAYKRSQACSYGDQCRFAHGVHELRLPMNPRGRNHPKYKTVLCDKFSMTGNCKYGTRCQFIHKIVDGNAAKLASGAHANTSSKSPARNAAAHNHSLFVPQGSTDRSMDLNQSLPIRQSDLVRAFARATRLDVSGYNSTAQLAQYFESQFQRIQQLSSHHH

[20] = target: T5, Zinc finger protein mex-5 (Caenorhabditis elegans, UniProt Q9XUB2); assay: potency of MEX-5 RNA-binding blockers – biochemical, C. elegans, fluorescence polarization, dose response (AID 1960)
T5 sequence (Q9XUB2 whole entry): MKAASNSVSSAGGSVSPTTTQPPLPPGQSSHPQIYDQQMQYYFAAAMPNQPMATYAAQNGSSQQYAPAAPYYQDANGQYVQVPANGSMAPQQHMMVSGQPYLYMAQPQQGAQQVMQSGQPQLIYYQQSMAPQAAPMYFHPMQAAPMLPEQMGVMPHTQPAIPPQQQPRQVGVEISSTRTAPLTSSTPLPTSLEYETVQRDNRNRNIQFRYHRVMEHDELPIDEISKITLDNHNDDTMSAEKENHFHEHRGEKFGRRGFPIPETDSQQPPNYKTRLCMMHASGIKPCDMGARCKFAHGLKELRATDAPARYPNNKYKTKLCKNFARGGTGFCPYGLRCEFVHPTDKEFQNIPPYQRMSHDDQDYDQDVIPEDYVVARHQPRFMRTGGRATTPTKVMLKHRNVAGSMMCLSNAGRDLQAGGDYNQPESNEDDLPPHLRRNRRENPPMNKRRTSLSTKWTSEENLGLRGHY

[21] = target: G-protein coupled receptor 35 (Homo sapiens, UniProt Q9HC97); assay: inhibition of zaprinast-stimulated GPR35 beta-arrestin translocation – imaging, U2OS, beta-arrestin-GFP, zaprinast agonist, primary screen (AID 2058); type: functional;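 note: antagonist potency meaning inhibition of agonist-induced arrestin redistribution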
Beta-lactamase [22] = target: Beta-lactamase (Salmonella choleraesuis (strain SC-B67), UniProt Q5J463)
Beta-lactamase [23] = target: Beta-lactamase (Pseudomonas aeruginosa, UniProt Q79MP6);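 note: biochemical dose-response test of metallo-beta-lactamase enzyme inhibition, read out by epi-absorbance; purified recombinant IMP-1 metallo-beta-lactamase with nitrocefin as substrate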
Chain of Beta-lactamase (Pseudomonas aeruginosa, UniProt Q79MP6) (Q79MP6 whole entry): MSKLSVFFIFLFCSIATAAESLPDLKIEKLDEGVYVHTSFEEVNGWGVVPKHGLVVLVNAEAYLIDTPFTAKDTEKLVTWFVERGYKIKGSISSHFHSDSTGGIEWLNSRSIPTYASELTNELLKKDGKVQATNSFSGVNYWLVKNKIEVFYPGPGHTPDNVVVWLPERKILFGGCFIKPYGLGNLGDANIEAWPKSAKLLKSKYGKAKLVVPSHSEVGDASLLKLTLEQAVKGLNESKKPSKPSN

Bcl-2-like protein 10 = target: T6, Bcl-2-like protein 10 (Homo sapiens, UniProt Q9HD36); assay: Bcl-B/TR3 peptide binding disruption – biochemical, fluorescence polarization, FITC-TR3 peptide, selectivity assay for Bfl-1 inhibitor project, primary screen (AID 748);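 note: fluorescence polarization from a fluorescein-labelled TR3 peptide binding purified Bcl-B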
T6 sequence (Q9HD36 whole entry): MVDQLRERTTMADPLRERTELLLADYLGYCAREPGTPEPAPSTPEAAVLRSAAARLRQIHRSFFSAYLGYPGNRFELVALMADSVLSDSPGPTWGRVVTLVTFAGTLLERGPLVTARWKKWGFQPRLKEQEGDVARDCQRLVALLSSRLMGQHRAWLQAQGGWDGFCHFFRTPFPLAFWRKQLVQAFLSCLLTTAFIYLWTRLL

Nonstructural protein 1 = Nonstructural protein 1 (Influenza A virus, UniProt Q194T2); type: functional, Influenza A virus (A/California/07/2009(H1N1))
[24] = target: Induced myeloid leukemia cell differentiation protein Mcl-1 (Homo sapiens, UniProt Q07820); type: functional

CCC(C)c1ccc(-n2ncc(Cl)c(Oc3ccc(OC)cc3)c2=O)cc1 (configuration not stated)
IC50 [1]: 2.2 µM (active)

COc1cccc(C(=O)Nc2nnc(-c3ccc(F)cc3)o2)c1
EC50 (Streptococcus): 5.74 µM (active)
EC50 [2]: > 150 µM (inactive)
CC50 [3]: 31.9 µM (active)
IC50 (cells): 1.03 µM (active)
CC50 [4]: 15.8 µM (active)
EC50 [5]: 1.96 µM (active)
EC50 [6]: 2.33 µM (active)

COC(=O)c1nnc(NC(C)=O)[nH]1
IC50 (Coagulation factor XII): 12.2 µM (active)

Cc1ccc(-n2ncc(Cl)c(Oc3ccc(CO)cc3)c2=O)cc1
IC50 [1]: > 20 µM (inactive)

CC(=O)NNC(=S)NC(=O)c1ccccc1
IC50 (Coagulation factor XII): > 50 µM (inactive)
IC50 (Prothrombin): > 50 µM (inconclusive)

Cc1ccc(N2CSC3=C(C#N)C(c4cccs4)CC(=O)N3C2)cc1 (configuration not stated)
IC50 (Protein Tat): > 100 µM (active)
IC50 [7]: 3.74 µM (active)
IC50 [8]: 5.19 µM (active)
IC50 [9]: > 50 µM (inactive)
EC50 (H4): 7.71 µM (active)
IC50 [10]: > 100 µM (inactive)
EC50 [11]: 13.2 µM (active)
EC50 [12]: 17 µM (active)
IC50 (Large T antigen): > 100 µM (active)
IC50 [13]: > 100 µM (active)

Cc1ccc(S(=O)(=O)c2nc(-c3cccs3)oc2SCC(N)=O)cc1
EC50 [14]: > 79.4 µM (not active)
EC50 [15]: 7.72 µM (active)
EC50 [16]: 8.44 µM (active)

CC(C(=O)c1ccc(Br)cc1)[n+]1cccc2ccccc21 (configuration not stated)
EC50 (Troponin, cardiac muscle): 15.2 µM (inactive)

CN=C(S)N1N=C(c2ccc(Br)cc2)CC1c1ccc(Br)cc1 (configuration not stated)
IC50 (Beta-galactosidase): > 80 µM (inactive)
EC50 [14]: > 26.5 µM (not active)
EC50 [15]: > 2.94 µM (active)
EC50 [17]: 1.64 µM (active)
EC50 [18]: > 60 µM (not active)
EC50 [16]: > 8.82 µM (not active)

Cc1cc(C)n2nc(SCC(=O)Nc3ccc(F)cc3)nc2n1
IC50 (Coagulation factor XII): > 50 µM (inactive)

CN(C)NC(=O)c1ccc([N+](=O)[O-])s1
EC50 (Troponin, cardiac muscle): > 71.4 µM (inactive)

CN1C(=O)/C(=C\c2ccc(N(C)C)cc2)OC1=S
EC50 [19]: > 300 µM (not active)
EC50 [20]: > 300 µM (inconclusive)
IC50 [21]: 1.12 µM (active)
IC50 (Beta-lactamase [22]): > 59.6 µM (inactive)
IC50 (Beta-lactamase [23]): > 59.6 µM (inactive)

CN(C)c1ccc(NC(=O)CN2C(=O)CN=C(c3ccccc3)c3cc(Cl)ccc32)cc1
IC50 (Bcl-2-like protein 10): > 100 µM (inactive)
IC50 (Nonstructural protein 1): 31 µM (active)
IC50 [24]: 856 nM (not active)
